Laboratory results from patent US10785975B2, “Water and feed antimicrobial preservative” (priority 2009, dated 2020).
One block for each molecule: values may come before it.

Tested on: Salmonella typhimurium
Test: Example 1: effect of pH buffering of acetic and propionic acid on antimicrobial activity in water
Format: cell-based
Conditions: for MIC at 24 HR / MIC at 4 Hr: Minimum Inhibitory Concentrations, by linear regression over 0.025-0.1% acid solutions
Experimental: Propionic and acetic acids were buffered with ammonium hydroxide to pHs ranging from 1 to 7. Acid contents of the buffered solutions were determined by a weight to weight ratio calculation to obtain the same acid content in the test solutions. […] The pHs of the deionized water solutions were recorded and any problems with solubility noted.
100 ul of a nutrient broth culture of Salmonella typhimurium was added to each dilution tube. After addition, tubes were vortexed and allowed to stand. At 4 and 24 hours after addition of the inoculum, 100 ul of the solution was plated on Standard Plate agar (triplicate plates). Plates were incubated at 37° C. for 24 hours prior to enumeration. The minimum effective dose of each acid was determined by linear regression.

[1] = Product Conc. 0.025 (% acid solution in water)
[2] = Product Conc. 0.05 (% acid solution in water)
[3] = Product Conc. 0.075 (% acid solution in water)
[4] = Product Conc. 0.1 (% acid solution in water)

Compound: CCC(=O)O [Propionic pH 6, Propionic acid]
Salmonella at time Interval 4 hr % reduction [1]: 0%
Salmonella at time Interval 4 hr cfu/g [1]: >1505 cfu/g
Salmonella at time Interval 24 hr % reduction [1]: 0%
Salmonella at time Interval 24 hr cfu/g [1]: 1450 cfu/g
Salmonella at time Interval 4 hr % reduction [2]: 7%
Salmonella at time Interval 4 hr cfu/g [2]: 1400 cfu/g
Salmonella at time Interval 24 hr % reduction [2]: 10%
Salmonella at time Interval 24 hr cfu/g [2]: 1067 cfu/g
Salmonella at time Interval 4 hr % reduction [3]: 0%
Salmonella at time Interval 4 hr cfu/g [3]: >1505 cfu/g
Salmonella at time Interval 24 hr % reduction [3]: 0%
Salmonella at time Interval 24 hr cfu/g [3]: 1233 cfu/g
Salmonella at time Interval 4 hr % reduction [4]: 0%
Salmonella at time Interval 4 hr cfu/g [4]: 1700 cfu/g
Salmonella at time Interval 24 hr % reduction [4]: 0%
Salmonella at time Interval 24 hr cfu/g [4]: 1333 cfu/g

MIC at 24 HR (pH 1): 0.065
Compound: CC(=O)O [Acetic pH 1, Acetic acid]
Salmonella at time Interval 4 hr % reduction [1]: 41%
Salmonella at time Interval 4 hr cfu/g [1]: 883 cfu/g
Salmonella at time Interval 24 hr % reduction [1]: 91%
Salmonella at time Interval 24 hr cfu/g [1]: 107 cfu/g
Salmonella at time Interval 4 hr % reduction [2]: 50%
Salmonella at time Interval 4 hr cfu/g [2]: 750 cfu/g
Salmonella at time Interval 24 hr % reduction [2]: 99%
Salmonella at time Interval 24 hr cfu/g [2]: 7 cfu/g
Salmonella at time Interval 4 hr % reduction [3]: 59%
Salmonella at time Interval 4 hr cfu/g [3]: 617 cfu/g
Salmonella at time Interval 24 hr % reduction [3]: 99%
Salmonella at time Interval 24 hr cfu/g [3]: 17 cfu/g
Salmonella at time Interval 4 hr % reduction [4]: 65%
Salmonella at time Interval 4 hr cfu/g [4]: 520 cfu/g
Salmonella at time Interval 24 hr % reduction [4]: 99%
Salmonella at time Interval 24 hr cfu/g [4]: 7 cfu/g

Compound: CCC(=O)O [Propionic pH 5, Propionic acid]
MIC at 4 Hr (pH 5): 0.170
MIC at 24 HR (pH 5): 0.165
Salmonella at time Interval 4 hr % reduction [1]: 0%
Salmonella at time Interval 4 hr cfu/g [1]: >1505 cfu/g
Salmonella at time Interval 24 hr % reduction [1]: 33%
Salmonella at time Interval 24 hr cfu/g [1]: 793 cfu/g
Salmonella at time Interval 4 hr % reduction [2]: 7%
Salmonella at time Interval 4 hr cfu/g [2]: 1400 cfu/g
Salmonella at time Interval 24 hr % reduction [2]: 20%
Salmonella at time Interval 24 hr cfu/g [2]: 943 cfu/g
Salmonella at time Interval 4 hr % reduction [3]: 22%
Salmonella at time Interval 4 hr cfu/g [3]: 1167 cfu/g
Salmonella at time Interval 24 hr % reduction [3]: 47%
Salmonella at time Interval 24 hr cfu/g [3]: 630 cfu/g
Salmonella at time Interval 4 hr % reduction [4]: 46%
Salmonella at time Interval 4 hr cfu/g [4]: 817 cfu/g
Salmonella at time Interval 24 hr % reduction [4]: 53%
Salmonella at time Interval 24 hr cfu/g [4]: 557 cfu/g

Compound: CCC(=O)O [Propionic pH 2, Propionic acid]
MIC at 4 Hr (pH 2): 0.120
MIC at 24 HR (pH 2): 0.064
Salmonella at time Interval 4 hr % reduction [1]: 29%
Salmonella at time Interval 4 hr cfu/g [1]: 1067 cfu/g
Salmonella at time Interval 24 hr % reduction [1]: 94%
Salmonella at time Interval 24 hr cfu/g [1]: 70 cfu/g
Salmonella at time Interval 4 hr % reduction [2]: 51%
Salmonella at time Interval 4 hr cfu/g [2]: 733 cfu/g
Salmonella at time Interval 24 hr % reduction [2]: 99%
Salmonella at time Interval 24 hr cfu/g [2]: 10 cfu/g
Salmonella at time Interval 4 hr % reduction [3]: 68%
Salmonella at time Interval 4 hr cfu/g [3]: 477 cfu/g
Salmonella at time Interval 24 hr % reduction [3]: 99%
Salmonella at time Interval 24 hr cfu/g [3]: 13 cfu/g
Salmonella at time Interval 4 hr % reduction [4]: 75%
Salmonella at time Interval 4 hr cfu/g [4]: 380 cfu/g
Salmonella at time Interval 24 hr % reduction [4]: 99%
Salmonella at time Interval 24 hr cfu/g [4]: 7 cfu/g

Compound: CC(=O)O [Acetic pH 7, Acetic acid]
Salmonella at time Interval 4 hr % reduction [1]: 0%
Salmonella at time Interval 4 hr cfu/g [1]: 1567 cfu/g
Salmonella at time Interval 24 hr % reduction [1]: 0%
Salmonella at time Interval 4 hr % reduction [2]: 0%
Salmonella at time Interval 4 hr cfu/g [2]: 1600 cfu/g
Salmonella at time Interval 24 hr % reduction [2]: 0%
Salmonella at time Interval 24 hr cfu/g [2]: 1433 cfu/g
Salmonella at time Interval 4 hr % reduction [3]: 2%
Salmonella at time Interval 4 hr cfu/g [3]: 1467 cfu/g
Salmonella at time Interval 24 hr % reduction [3]: 0%
Salmonella at time Interval 24 hr cfu/g [3]: 1433 cfu/g
Salmonella at time Interval 4 hr % reduction [4]: 0%
Salmonella at time Interval 4 hr cfu/g [4]: 1567 cfu/g
Salmonella at time Interval 24 hr % reduction [4]: 0%

MIC at 4 Hr (pH 5): 0.238
MIC at 24 HR (pH 5): 0.210
Compound: CC(=O)O [Acetic pH 5, Acetic acid]
Salmonella at time Interval 4 hr % reduction [1]: 16%
Salmonella at time Interval 4 hr cfu/g [1]: 1267 cfu/g
Salmonella at time Interval 24 hr % reduction [1]: 16%
Salmonella at time Interval 24 hr cfu/g [1]: 993 cfu/g
Salmonella at time Interval 4 hr % reduction [2]: 0%
Salmonella at time Interval 4 hr cfu/g [2]: 1533 cfu/g
Salmonella at time Interval 24 hr % reduction [2]: 26%
Salmonella at time Interval 24 hr cfu/g [2]: 873 cfu/g
Salmonella at time Interval 4 hr % reduction [3]: 9%
Salmonella at time Interval 4 hr cfu/g [3]: 1367 cfu/g
Salmonella at time Interval 24 hr % reduction [3]: 32%
Salmonella at time Interval 24 hr cfu/g [3]: 805 cfu/g
Salmonella at time Interval 4 hr % reduction [4]: 14%
Salmonella at time Interval 4 hr cfu/g [4]: 1300 cfu/g
Salmonella at time Interval 24 hr % reduction [4]: 49%
Salmonella at time Interval 24 hr cfu/g [4]: 597 cfu/g

Compound: CCC(=O)O [Propionic pH 4, Propionic acid]
MIC at 4 Hr (pH 4): 0.237
MIC at 24 HR (pH 4): 0.091
Salmonella at time Interval 4 hr % reduction [1]: 9%
Salmonella at time Interval 4 hr cfu/g [1]: 1367 cfu/g
Salmonella at time Interval 24 hr % reduction [1]: 48%
Salmonella at time Interval 24 hr cfu/g [1]: 615 cfu/g
Salmonella at time Interval 4 hr % reduction [2]: 20%
Salmonella at time Interval 4 hr cfu/g [2]: 1200 cfu/g
Salmonella at time Interval 24 hr % reduction [2]: 75%
Salmonella at time Interval 24 hr cfu/g [2]: 293 cfu/g
Salmonella at time Interval 4 hr % reduction [3]: 37%
Salmonella at time Interval 4 hr cfu/g [3]: 943 cfu/g
Salmonella at time Interval 24 hr % reduction [3]: 84%
Salmonella at time Interval 24 hr cfu/g [3]: 187 cfu/g
Salmonella at time Interval 4 hr % reduction [4]: 22%
Salmonella at time Interval 24 hr % reduction [4]: 86%
Salmonella at time Interval 24 hr cfu/g [4]: 163 cfu/g

MIC at 4 Hr (pH 4): 0.207
MIC at 24 HR (pH 4): 0.096
Compound: CC(=O)O [Acetic pH 4, Acetic acid]
Salmonella at time Interval 4 hr % reduction [1]: 29%
Salmonella at time Interval 4 hr cfu/g [1]: 1067 cfu/g
Salmonella at time Interval 24 hr % reduction [1]: 54%
Salmonella at time Interval 24 hr cfu/g [1]: 543 cfu/g
Salmonella at time Interval 4 hr % reduction [2]: 22%
Salmonella at time Interval 4 hr cfu/g [2]: 1167 cfu/g
Salmonella at time Interval 24 hr % reduction [2]: 66%
Salmonella at time Interval 24 hr cfu/g [2]: 407 cfu/g
Salmonella at time Interval 4 hr % reduction [3]: 27%
Salmonella at time Interval 4 hr cfu/g [3]: 1097 cfu/g
Salmonella at time Interval 24 hr % reduction [3]: 78%
Salmonella at time Interval 24 hr cfu/g [3]: 263 cfu/g
Salmonella at time Interval 4 hr % reduction [4]: 22%
Salmonella at time Interval 4 hr cfu/g [4]: 1167 cfu/g
Salmonella at time Interval 24 hr % reduction [4]: 84%
Salmonella at time Interval 24 hr cfu/g [4]: 183 cfu/g

Compound: CCC(=O)O [Propionic pH 7, Propionic acid]
Salmonella at time Interval 4 hr % reduction [1]: 0%
Salmonella at time Interval 4 hr cfu/g [1]: >1505 cfu/g
Salmonella at time Interval 24 hr % reduction [1]: 0%
Salmonella at time Interval 24 hr cfu/g [1]: 1667 cfu/g
Salmonella at time Interval 4 hr % reduction [2]: 0%
Salmonella at time Interval 4 hr cfu/g [2]: 1700 cfu/g
Salmonella at time Interval 24 hr % reduction [2]: 0%
Salmonella at time Interval 24 hr cfu/g [2]: 1367 cfu/g
Salmonella at time Interval 4 hr % reduction [3]: 0%
Salmonella at time Interval 4 hr cfu/g [3]: >1505 cfu/g
Salmonella at time Interval 24 hr % reduction [3]: 0%
Salmonella at time Interval 24 hr cfu/g [3]: 1700 cfu/g
Salmonella at time Interval 4 hr % reduction [4]: 0%
Salmonella at time Interval 4 hr cfu/g [4]: 1600 cfu/g
Salmonella at time Interval 24 hr % reduction [4]: 0%
Salmonella at time Interval 24 hr cfu/g [4]: 1367 cfu/g
